This note sets out measurements from doi:10.1101/2021.05.17.444542v1, “Structure Activity Relationship of USP5 Allosteric Inhibitors” (biorxiv, 2021).

The experiment concerns the target T1, USP5 ZnF-UBD (USP5 171-290) (Homo sapiens, UniProt P45974).
T1 sequence (P45974 171-290): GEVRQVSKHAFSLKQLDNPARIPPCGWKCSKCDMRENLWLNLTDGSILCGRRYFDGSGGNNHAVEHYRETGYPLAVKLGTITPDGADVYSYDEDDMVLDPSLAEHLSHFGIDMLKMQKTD
The conditions noted are these: FITC-ubiquitin displacement, N=1; 100 µM; inhibitor.

As for `O=C(O)CCC(=O)c1cccc(NS(=O)(=O)c2ccc(Cl)c(C(=O)O)c2)c1` [S9], the “% inhibition” value amounted to 26%.

On to `CN(c1ccc(S(C)(=O)=O)cc1)S(=O)(=O)c1ccc(C(=O)CCC(=O)O)cc1` [S4], for which the “% inhibition” value was determined as 61%.

For the compound `O=C(O)CCC(=O)c1cccc(NS(=O)(=O)c2cc(F)cc(C(=O)O)c2)c1` [S6], the “% inhibition” value is recorded as 3%.

Regarding `O=C(O)CCC(=O)c1cccc(NS(=O)(=O)c2c[nH]c(C(=O)N3CCCC3)c2)c1` [S5], the “% inhibition” value is given as 50%.

On to `Cc1ccc(OC(C)CNS(=O)(=O)c2ccc(C(=O)CCC(=O)O)cc2)cc1` (stereo not drawn) [S8], for which the “% inhibition” value stood at 37%.

Consider `Cc1ccc(C(=O)O)cc1S(=O)(=O)Nc1cccc(C(=O)CCC(=O)O)c1` [S2], for which the “% inhibition” value is listed as 36%.

For `CC(CC(=O)c1cccc(-c2ccc3c(c2)CCCO3)c1)C(=O)O` (stereo not drawn) [S3], the “% inhibition” value is recorded as 31%.

Consider `O=C(O)CCC(=O)c1cccc(NS(=O)(=O)c2c[nH]c3ncccc23)c1` [S1], for which the “% inhibition” value is on record as 40%.

For the compound `CCCn1nc(C)c(-c2ccc(OC)c(C(=O)CCC(=O)O)c2)c1C` [S7], the “% inhibition” value is reported as 32%.

The term % inhibition denotes the change of the read-out against control, counted positive when it falls. Low values mean a weak effect, high ones a strong effect.
